Reference: patent publication US20220016241A1, “COMPOSITIONS AND METHODS FOR REDUCING ANTIGEN-SPECIFIC IMMUNOGENICITY” (The Research Foundation for The State University of New York, priority 2013, published 2022)
pKd: −log10 of the molar value.

Assays:
anti-FVIII titers [1] = experiment: Effect of OPLS on in-vivo immunogenicity of FVIII after sc administration; parameters: species or system HA mice; settings: days 1, 8, 10, 12
Method: Effect of OPLS on the immunogenicity of FVIII after SC administration in-vivo: 21 HA mice between 6 and 8 weeks of age were divided into 3 groups: group one received 1 ug FVIII SC in the abdominal region. Group two received 1 μg FVIII plus 0.4 mg OPLS SC in the abdominal region and group 3 received 1 μg FVIII plus 5 mg OPLS sc in the abdominal region. Incubation of FVIII with OPLS at 37° C. for 30 minutes ensures complexation, but for this example, OPLS and FVIII were combined at the desired concentrations at room temperature (22° C.) and immediately administered (within 1 minute). This treatment was given one day 1, 8, 10 and 12. Three days after the last injection the animals were sacrificed. Blood was centrifuged at 7500 rpm for 5 min at 4 degrees Celsius. Plasma was then removed and stored at −80 degrees Celsius until analysis.
Total titers were determined by classical standard ELISA. Anti-FVIII antibody (ESH8) was used as a control. Statistics was done on the arithmetic mean of the log transformed data, graphs are reported as geometric means. Non-responders were given the value of the plate specific factor for uniformity. […]
(§1) Statistics: Non-parametric one-way ANOVA with Tukey's post hoc analysis was used for the analysis of titer values where appropriate. Student t-test was used for comparing mean intensity of fluorescence (MIF) for flow cytomerty data. […]

anti-FVIII titers [2] = experiment: Tolerance induction and FVIII re-challenge study (FVIII, FVIII plus OPLS, FVIII plus Dexamethasone); type: in vivo, HA mice; settings: co-administered sc with 1 μg FVIII, 4 weekly
Method: Tolerance induction studies in HA mice: Breeding pairs of exon 16 knockout transgenic hemophilic mice (HA) were used. All animal studies were conducted in accordance with an approved protocol by the Institutional Animal Use and Care Committee at the University at Buffalo, State University of New York.
Immunization and re-challenge schedule: To delineate whether OPLS mediated reduction of antibody titer is due to immune tolerance or immune suppression, we performed re-challenge experiments. Forty HA mice were pre-treated with FVIII, FVIII plus OPLS or FVIII plus Dexamethasone once-a-week for four consecutive weeks by sc injections of endotoxin free formulation of 1 μg of FVIII alone or with 5 mg OPLS or 200 ng Dexamethasone (Dex) as shown in FIG. 32. The injections were prepared in TRIS buffers containing 25 mM TRIS and 150 mM NaCl at pH 7.5. For OPLS containing formulations, OPLS was added to the buffer and the pH adjusted to 7.5. The appropriate amount of FVIII was added immediately before injection to prevent complexation between FVIII and OPLS pre-injection. […] Total anti-FVIII titer levels were measured by ELISA.
as §1

OVA = molecular target: T1, OVA (Gallus gallus, UniProt P01012); experiment: Binding of OPLS to OVA by fluorescence spectroscopy
T1 construct: purchased Sigma (St. Louis, Mo.)
Method: The binding of OPLS to several therapeutic proteins was evaluated using fluorescence spectroscopy (FIG. 2).

[3] = system: anti-GAA peptide antibody titers; experiment: Effect of OPLS and PS-liposomes on GAA peptide immunogenicity; type: in vivo, mouse; settings: 10 μg peptide, 4 weekly s.c.; OPLS 5 mg or PS/PC 1:10,000 protein:lipid
Method: Materials and Methods. GAA peptide Source: This GAA peptide was produced by American Peptide Company (Sunnyvale, Calif.). They produced for us a peptide […] containing amino acids 339-352 of the full length GAA sequence, YIFLGPEPKSVVQ (SEQ ID NO:1). OPLS Source: Sigma-Aldrich (St. Louis, Mo.) Peptide concentration dose: 10 μg/injection. Free GAA peptide (n=4), PS-GAA peptide (n=4), and OPLS-GAA peptide (n=5). Each mouse received 4 weekly subcutaneous (s.c.) injections near the base of the tail of 100 μl/injection of their treatment. Two weeks after the last injection, a retro-orbital blood sample was taken from each mouse. Samples were stored at −80° C. until analysis. These samples were then analyzed for anti-GAA peptide Ab titers. Anti-GAA antibody titers were measured as follows: ELISA plate (maxisorp, NUNC) was coated with 100 μl of 10 μg/ml of sterile rhGAA in sodium carbonate-bicarbonate buffer pH=9.6. The plate was incubated overnight at 4° C. The plate was washed six times with PBS containing 0.05% Tween 20 (PBS-T, 250 μl/well) using an automated plate washer. […] The reaction was stopped with 2 N sulfuric acid and read immediately at 450 nm using a micro-plate reader. The titer values are quantitated using a statistical endpoint method as described by Frey et al. Control plasma samples were run on each plate. […]

T1 sequence (P01012 whole entry): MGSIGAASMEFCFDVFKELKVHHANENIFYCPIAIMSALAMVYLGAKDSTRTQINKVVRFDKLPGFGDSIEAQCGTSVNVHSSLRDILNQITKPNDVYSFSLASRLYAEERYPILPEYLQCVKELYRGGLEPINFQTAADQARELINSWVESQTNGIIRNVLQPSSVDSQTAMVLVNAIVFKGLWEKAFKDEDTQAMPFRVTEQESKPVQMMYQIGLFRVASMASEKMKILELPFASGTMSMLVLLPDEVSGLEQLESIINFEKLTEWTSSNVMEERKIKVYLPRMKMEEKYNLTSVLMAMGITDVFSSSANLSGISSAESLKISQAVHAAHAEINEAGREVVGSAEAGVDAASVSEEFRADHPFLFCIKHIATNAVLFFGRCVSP

SMILES: N[C@@H](COP(=O)(O)O)C(=O)O [OPLS, O-Phospho-L-Serine]
- Total anti-FVIII titer (anti-FVIII titers [1]; 1 μg FVIII with high dose OPLS (5 mg/injection) sc, geometric mean±SD): 5.34±5.8 arbitrary units
- Total anti-FVIII titer (anti-FVIII titers [1]; 1 μg FVIII with low dose OPLS (0.4 mg/injection) sc, not statistically significant vs FVIII alone): 137±1.4 arbitrary titer units
- Anti-FVIII antibody response during the pre-treatment stage (anti-FVIII titers [2]): reduced
- pKd (OVA; fluorescence titration, FIG. 2, read-out: Dissociation constant (Kd) of OPLS binding to OVA): 2.59
- Binding affinity of OVA for OPLS (OVA; spectroscopic titration): lowest affinity
- Anti-GAA peptide antibody titers vs GAA peptide alone [3]: lower
